Assay results taken from patent US11657895B2, “Methods for identifying treatment targets based on multiomics data” (INSTITUTE FOR SYSTEMS BIOLOGY, priority 2016, dated 2023).

What was measured:
[1] = test system: HA, T98G and U251 cell lines; assay: Apoptosis screen across the HA, T98G and U251 cell lines; type: cell-based, human; conditions: oncogene inhibitor paired with miRNA mimic(s) targeting the same oncogene; cell lines listed
[2] = test system: HA, T98G and U251 cell lines; assay: Proliferation screen across the HA, T98G and U251 cell lines; conditions: for Signficant Effect on Proliferation (cell lines): oncogene inhibitor paired with miRNA mimic(s) targeting the same oncogene, cell lines listed
U251 = assay: Proliferation in GBM-derived cell line U251; type: cell-based; conditions: Homo sapiens, U-251
[3] = Iwamoto et al., 2011; cited from earlier work
GBM cell lines = conditions: 1.85 nM romidepsin, Sawa et al., 2004; cited from earlier work

SMILES | Significant Effect on Apoptosis (cell lines) [1] | Signficant Effect on Proliferation (cell lines) [2] | Rank of single-agent effects on proliferation and apoptosis [2] | IC50 (U251) | half-life in patients [3] | Effect in GBM cell lines (GBM cell lines)
CNC(=O)c1cc(Oc2ccc(NC(=O)Nc3ccc(Cl)c(C(F)(F)F)c3)cc2)ccn1 [Sorafenib, 4-[4-[[4-chloro-3-(trifluoromethyl)phenyl]carbamoylamino]phenoxy]-N-methyl-pyridine-2-carboxamide] | HA, 198G | – | – | – | – | –
O=C(CCCCCCC(=O)Nc1ccccc1)NO [Vorinostat, N-Hydroxy-N′-phenyloctanediamide] | – | HA, U251 | – | – | – | –
C/C=C1\NC(=O)[C@H]2CSSCC/C=C/[C@H](CC(=O)N[C@H](C(C)C)C(=O)N2)OC(=O)[C@H](C(C)C)NC1=O [romidepsin, (1S,4S,7Z,10S,16E,21R)-7-ethylidene-4,21-diisopropyl-2-oxa-12,13-dithia-5,8,20,23-tetrazabicyclo[8.7.6]tricos-16-ene-3,6,9,19,22-pentone] | – | HA, U251 | strongest effects on proliferation and apoptosis in every cell line | 1.1 nM | short half-life | anti-proliferative and pro-apoptotic
